# According to patent publication US20250262201A1, “COMPOUNDS AND METHODS USEFUL FOR STABILIZING PHENYLALANINE HYDROXYLASE MUTATIONS” (Agios Pharmaceuticals, Inc., priority 2022, published 2025):
# Biological target: T1, human PAH with the R408W mutation (Homo sapiens, UniProt P00439, R408W)
# T1 construct: expressed in transfected cells
# T1 sequence (P00439 1-452 R408W): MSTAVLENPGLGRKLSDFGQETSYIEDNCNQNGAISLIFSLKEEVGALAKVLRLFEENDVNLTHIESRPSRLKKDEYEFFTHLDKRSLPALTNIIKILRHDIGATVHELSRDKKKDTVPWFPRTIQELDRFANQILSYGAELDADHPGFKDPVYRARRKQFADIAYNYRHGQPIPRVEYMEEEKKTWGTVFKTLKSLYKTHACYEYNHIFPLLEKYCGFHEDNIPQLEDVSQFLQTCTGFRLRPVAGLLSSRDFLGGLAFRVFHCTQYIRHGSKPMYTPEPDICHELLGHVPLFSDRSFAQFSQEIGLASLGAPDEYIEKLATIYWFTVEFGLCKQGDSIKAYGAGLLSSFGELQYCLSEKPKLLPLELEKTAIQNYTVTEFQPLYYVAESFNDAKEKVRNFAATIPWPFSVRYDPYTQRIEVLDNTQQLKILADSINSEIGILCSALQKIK
# Assay: Cell Based Phenylalanine Flux Assay
# Set-up: scale not given here
# Details: A375 R408W cells, 24 hrs with compound, then 20 μM sepiapterin and 800 μM 13C9,15N-Phenylalanine for 4 hours; 13C-Tyrosine by LC-MS; average where tested multiple times
row,AC50,Structure (SMILES)
1,"E, E","CC1CN(C(=O)c2nnc(C(C)(C)O)o2)C(c2cc3ccccc3cn2)c2nc[nH]c21 [(4S, 7S) diastereomer of 2-{5-[4-(isoquinolin-3-yl)-7-methyl]"

# Same assay, conditions: A375 R408W cells, 24 hrs with compound, then 20 μM sepiapterin and 800 μM 13C9,15N-Phenylalanine for 4 hours; 13C-Tyrosine by LC-MS; average where tested multiple times; read-out: AC50
row,Structure (SMILES),AC50 [nM]
1,O=C(c1cnn(CC(F)(F)F)c1Cl)N1CCc2[nH]cnc2C1c1ccc2ccccc2n1 (stereo not drawn),1000 to 5000
2,"CC(C)(O)c1ncc(C(=O)N2CCc3[nH]cnc3[C@H]2c2cn3ccccc3n2)o1 (single isomer, unassigned)",> 5000
3,"Cc1nc(N(C)C)oc1C(=O)N1CCc2[nH]cnc2[C@H]1c1ccc2ccccc2n1 (single isomer, unassigned)",> 5000
4,Cc1c(-c2nnc(C(=O)N3C[C@@H](C)c4[nH]cnc4[C@@H]3c3cc4ccccc4cn3)o2)cnn1C,1000 to 5000
5,O=C(CCc1ccccc1)N1CCc2[nH]cnc2C1c1cn2ccccc2n1 (stereo not drawn),1000 to 5000
6,Cn1cc(-c2nnc(C(=O)N3CCc4[nH]cnc4C3c3cn4ccccc4n3)o2)cn1 (stereo not drawn),1000 to 5000
7,CC(C)(O)c1ccc2c(C(=O)N3CCc4[nH]cnc4C3c3ccc4ccccc4n3)cnn2c1 (stereo not drawn),> 5000
8,O=C(c1nnc(-c2ncccn2)o1)N1CCc2[nH]cnc2C1c1ncc2ccccc2n1 (stereo not drawn),> 5000

# Results, then the compound that gave them:
row,AC50 [nM],Structure (SMILES)
1,1000 to 5000,CC(C)(O)c1nnc(C(=O)N2CCc3[nH]cnc3C2c2cc3ccccc3nn2)o1 (stereo not drawn)
2,> 5000,O=C(c1nnc(-c2ccn(CC(F)F)n2)o1)N1CCc2[nH]cnc2C1c1ccc2ccccc2n1 (stereo not drawn)
3,1000 to 5000,O=C(c1nnc(N2CCC(F)CC2)o1)N1CCc2[nH]cnc2C1c1ccc2ccccc2n1 (stereo not drawn)
4,> 5000,Cc1ncc(CC(=O)N2CCc3[nH]cnc3C2c2cn3ccccc3n2)o1 (stereo not drawn)
5,1000 to 5000,CC(C)(C)c1nnc(C(=O)N2CCc3[nH]cnc3C2c2cc3ccccc3nn2)o1 (stereo not drawn)
6,1000 to 5000,O=C(c1nnc(CCN2CC(F)C2)o1)N1CCc2[nH]cnc2[C@H]1c1cc2ccccc2cn1

# Same assay, conditions: A375 cells expressing human R408W PAH; 24 hrs compound incubation; 13C-Tyrosine by LC-MS; average where tested multiple times; read-out: AC50
row,Structure (SMILES),AC50 [nM]
1,"Cc1ncccc1-c1ccc2c(C(=O)N3CCc4[nH]cnc4[C@H]3c3cc4ccccc4cn3)cnn2c1 [Example 480, (R)-(4-(isoquinolin-3-yl)-6,7-dihydro-1H-imidazo[4,5-c]pyridin-5(4H)-yl)(6-(2-methylpyridin-3-yl)pyrazolo[1,5-a]pyridin-3-yl)methanone]",< 500
2,"O=C(c1cnn2cc(Br)ccc12)N1CCc2[nH]cnc2[C@H]1c1cc2ccccc2cn1 [Example 352, (R)-(6-bromopyrazolo[1,5-a]pyridin-3-yl)(4-(isoquinolin-3-yl)-6,7-dihydro-1H-imidazo[4,5-c]pyridin-5(4H)-yl)methanone]",< 500
3,"O=C(CCC1CC1)N1CCc2[nH]cnc2[C@H]1c1cn2ccccc2n1 [Example 242, (R)-3-cyclopropyl-1-(4-(imidazo[1,2-a]pyridin-2-yl)-6,7-dihydro-1H-imidazo[4,5-c]pyridin-5(4H)-yl)propan-1-one]",< 500
4,"CC(C)(F)c1ncc(C(=O)N2CCc3[nH]cnc3[C@H]2c2cc3ccccc3cn2)s1 [Example 332, (R)-(2-(2-fluoropropan-2-yl)thiazol-5-yl)(4-(isoquinolin-3-yl)-6,7-dihydro-1H-imidazo[4,5-c]pyridin-5(4H)-yl)methanone]",< 500
5,"CC(C)(O)c1ncc(C(=O)N2CCc3[nH]cnc3[C@@H]2c2cc3ccccc3cn2)s1 [Example 329, (S)-(2-(2-hydroxypropan-2-yl)thiazol-5-yl)(4-(isoquinolin-3-yl)-6,7-dihydro-1H-imidazo[4,5-c]pyridin-5(4H)-yl)methanone]",> 5000
6,"O=C(Cc1nncs1)N1CCc2[nH]cnc2[C@H]1c1cc2ccccc2cn1 [Example 349, (R)-1-(4-(isoquinolin-3-yl)-6,7-dihydro-1H-imidazo[4,5-c]pyridin-5(4H)-yl)-2-(1,3,4-thiadiazol-2-yl)ethanone]",< 500
7,"O=C(CCC1CC1)N1CCc2[nH]cnc2[C@@H]1c1cn2ccccc2n1 [Example 241, (S)-3-cyclopropyl-1-(4-(imidazo[1,2-a]pyridin-2-yl)-6,7-dihydro-1H-imidazo[4,5-c]pyridin-5(4H)-yl)propan-1-one]",> 5000
8,"O=C(c1nnc(-c2ccccc2)s1)N1CCc2[nH]cnc2[C@H]1c1cc2ccccc2cn1 [Example 364, (R)-(4-(isoquinolin-3-yl)-6,7-dihydro-1H-imidazo[4,5-c]pyridin-5(4H)-yl)(5-phenyl-1,3,4-thiadiazol-2-yl)methanone]",< 500
9,"O=C(c1nnc(C2CC2)o1)N1CCc2[nH]cnc2C1c1cc2ccccc2cn1 (stereo in doubt) [Example 327, (S)-(5-cyclopropyl-1,3,4-oxadiazol-2-yl)(4-(isoquinolin-3-y1)-6,7-dihydro-1H-imidazo[4,5-c]pyridin-5(4H)-yl)methanone]",> 5000
10,"O=C(c1nnc(-c2cnn(C3CCC3)c2)o1)N1CCc2[nH]cnc2[C@H]1c1cc2ccccc2cn1 [Example 449, (R)-(5-(1-cyclobutyl-1H-pyrazol-4-yl)-1,3,4-oxadiazol-2-yl)(4-(isoquinolin-3-yl)-6,7-dihydro-1H-imidazo[4,5-c]pyridin-5(4H)-yl)methanone]",< 500
11,"C[C@H]1CN(C(=O)c2nnc(-c3ccccn3)o2)[C@H](c2cc3ccccc3cn2)c2nc[nH]c21 (single isomer, unassigned) [Example 385]",500 to 1000
12,"Cc1nc([C@@H](C)O)oc1C(=O)N1CCc2[nH]cnc2C1c1ccc2ccccc2n1 (stereo in doubt) [Example 111, (2-((R)-1-hydroxyethyl)-4-methyloxazol-5-yl)((R)-4-(quinolin-2-yl)-6,7-dihydro-1H-imidazo[4,5-c]pyridin-5(4H)-yl)methanone]",500 to 1000
13,"O=C(c1nnc(-c2ccn(C(F)F)n2)o1)N1CCc2[nH]cnc2[C@H]1c1ncc2ccccc2n1 [Example 189, (S)-(5-(1-(difluoromethyl)-1H-pyrazol-3-yl)-1,3,4-oxadiazol-2-yl)(4-(quinazolin-2-yl)-6,7-dihydro-1H-imidazo[4,5-c]pyridin-5(4H)-yl)methanone]",< 500
14,"O=C(c1cnc(-c2cnn(CC(F)(F)F)c2)s1)N1CCc2[nH]cnc2[C@@H]1c1cc2ccccc2cn1 [Example 307, (S)-(4-(isoquinolin-3-yl)-6,7-dihydro-1H-imidazo[4,5-c]pyridin-5(4H)-yl)(2-(1-(2,2,2-trifluoroethyl)-1H-pyrazol-4-yl)thiazol-5-yl)methanone]",> 5000
15,"O=C(c1nnc(-c2cnn(C3CCC3)c2)o1)N1CCc2[nH]cnc2[C@@H]1c1ncc2ccccc2n1 [Example 188, (R)-(5-(1-cyclobutyl-1H-pyrazol-4-yl)-1,3,4-oxadiazol-2-yl)(4-(quinazolin-2-yl)-6,7-dihydro-1H-imidazo[4,5-c]pyridin-5(4H)-yl)methanone]",1000 to 5000

# Further lines, results first:
row,AC50 [nM],Structure (SMILES)
1,> 5000,"CC(C)(O)c1nnc(C(=O)N2CCc3[nH]cnc3C2c2ccc3ccccc3n2)o1 (stereo in doubt) [Example 27, (S)-(5-(2-hydroxypropan-2-yl)-1,3,4-oxadiazol-2-yl)(4-(quinolin-2-yl)-6,7-dihydro-1H-imidazo[4,5-c]pyridin-5(4H)-yl)methanone]"
2,< 500,"O=C(c1nsc2ccccc12)N1CCc2[nH]cnc2[C@H]1c1cc2ccccc2cn1 [Example 358, (R)-benzo[d]isothiazol-3-yl(4-(isoquinolin-3-yl)-6,7-dihydro-1H-imidazo[4,5-c]pyridin-5(4H)-yl)methanone]"
3,> 5000,"O=C(c1oc(-c2ccccn2)nc1C1CC1)N1CCCc2[nH]cnc2[C@@H]1c1cc2ccccc2cn1 (single isomer, unassigned) [Example 380]"
4,> 5000,"O=C(c1cnco1)N1CCc2[nH]cnc2[C@@H]1c1ncc2ccccc2n1 [Example 150, (R)-oxazol-5-yl(4-(quinazolin-2-yl)-6,7-dihydro-1H-imidazo[4,5-c]pyridin-5(4H)-yl)methanone]"
5,500 to 1000,"Cn1nc(Cl)nc1C(=O)N1CCc2[nH]cnc2C1c1ccc2ccccc2n1 (stereo in doubt) [Example 265, (R)-(3-chloro-1-methyl-1H-1,2,4-triazol-5-yl)(4-(quinolin-2-yl)-6,7-dihydro-1H-imidazo[4,5-c]pyridin-5(4H)-yl)methanone]"
6,< 500,"Cn1ncnc1C(=O)N1CCc2[nH]cnc2[C@H]1c1cc2ccccc2cn1 [Example 518, [(4R)-4-(3-isoquinolyl)-1,4,6,7-tetrahydroimidazo[4,5-c]pyridin-5-yl]-(2-methyl-1,2,4-triazol-3-yl)methanone]"
7,> 5000,"O=C(c1nnc(-c2ccccn2)o1)N1CCc2[nH]cnc2C1c1ccc2ccccc2n1 (stereo in doubt) [Example 46, (S)-(5-(pyridin-2-yl)-1,3,4-oxadiazol-2-yl)(4-(quinolin-2-yl)-6,7-dihydro-1H-imidazo[4,5-c]pyridin-5(4H)-yl)methanone]"
8,> 5000,"O=C(c1cnn(CC(F)(F)F)c1C(F)F)N1CCc2[nH]cnc2C1c1ccc2ccccc2n1 (stereo in doubt) [Example 126, (S)-(5-(difluoromethyl)-1-(2,2,2-trifluoroethyl)-1H-pyrazol-4-yl)(4-(quinolin-2-yl)-6,7-dihydro-1H-imidazo[4,5-c]pyridin-5(4H)-yl)methanone]"
9,< 500,"Cc1nc(-c2ccccn2)oc1C(=O)N1C[C@@H](C)c2[nH]cnc2[C@H]1c1cc2ccccc2cn1 [Example 406, [(4R,7R)-4-(3-isoquinolyl)-7-methyl-1,4,6,7-tetrahydroimidazo[4,5-c]pyridin-5-yl]-[4-methyl-2-(2-pyridyl)oxazol-5-yl]methanone]"
